Measured values taken from patent US10047041B2, “Amino-phenyl-sulfonyl-acetate derivatives and use thereof” (CJ Healthcare Corporation, priority 2014, dated 2018).

Test system: ICR mice
Assay: Oral glucose tolerance test (OGTT) in ICR mice
Assay type: in vivo
Conditions: normal fasted ICR mice; oral 50, 20, 5 and 1 mg/kg in 0.5% methylcellulose; glucose 2 g/kg; student's t-test p<0.05
Protocol: In order to evaluate the ability to control blood glucose in the body for the compound according to the present invention, an oral glucose tolerance test was conducted using ICR mice. The day before the test, normal ICR mice were separated into four per group, and were fasted for at least 16 hours. The body weight of each mouse was measured and recorded in the morning on the day of the test; The compound was prepared in a concentration of 5 mg/mL in 0.5% methylcellulose such that it could be administered at a dose of 50 mg/kg, and was then further diluted to be in concentrations of […] and administered at the same volume such that it can be administered at doses of 20 mg/kg, 5 mg/kg, and 1 mg/kg. Glucose was dissolved in drinking water and prepared in a concentration of 200 mg/mL such that it could be administered at a dose of 2 g/kg. Before administering the compounds, a small amount of blood of the mice was drawn from the caudal vein, and blood glucose was measured using ACCU-CHEK Active (Art. No. 2248891001), a blood glucose meter, and recorded. A solvent (0.5% MC) as a vehicle and the compounds prepared above were administered to all mice at a dose of 10 mL per 1 kg of body weight using a sonde. Glucose was further administered, and the blood glucose was measured in each mouse after 0.5 hours, 1 hour, and 2 hours. […]

## Cc1ccccc1-c1cccc(CNc2ccc(S(=O)(=O)CC(=O)O)cc2)c1 [Example 1, 2-(4-((2′-methyl-biphenyl-3-yl)methylamino)phenylsulfonyl)acetic acid]
  effect of lowering blood glucose (glucose AUC0-2 hr after glucose administration): significant effect of lowering blood glucose
